These results are taken from patent EP0293880B1, “Antihyperlipidemic and antiatherosclerotic urea compounds” (priority 1987, dated 1988).

The target of assay [1] is acyl-CoA:cholesterol acyl-transferase (ACAT). The assay can be described thus: In vitro ACAT inhibition test (radio-labeled cholesterol oleate formed from radio-labeled oleic acid in rabbit intestinal microsomes). It counts as biochemical. To be noted: tissue preparation containing rabbit intestinal microsomes; concentration required to inhibit 50% expression of the enzyme; read-out: IC₅₀. The procedure:
The ability of representative compounds of the present invention to inhibit ACAT was measured using an in vitro test more fully described in Field, F. J. and Salone, R. G., Biochemica et Biophysica 712: 557-570 (1982). The test assesses the ability of a test compound to inhibit the acylation of cholesterol by oleic acid by measuring the amount of radio-labeled cholesterol oleate formed from radio-labeled oleic acid in a tissue preparation containing rabbit intestinal microsomes. The data appear in Table 1 where they are expressed as IC₅₀ values; i.e. the concentration of test compound required to inhibit 50% expression of the enzyme.

Assay [2] in a line: In vivo screen PCC (cholesterol-fed rats, total blood cholesterol). The following applies: after one week; for % Change: change of total blood cholesterol versus control, 0.05% of the test drug in the diet; for Total Blood Cholesterol: rats on chow diet with 5.5% peanut oil, 1.5% cholesterol, 0.3%-0.5% cholic acid, 0.05% of the test drug admixed into the diet. More on the design: species or system male Sprague-Dawley rats. An excerpt: In one in vivo screen, designated PCC, male Sprague-Dawley rats (approximately 200 g body weight) are randomly divided into groups and provided ad libidum a regular chow diet (Purina No. 5002, Ralston Purina Co., 711 West Fuesser Road, Mascoutah, Illinois, 62224, USA), supplemented with 5.5% peanut oil, 1.5% cholesterol, and 0.3%-0.5% cholic acid, together with 0.05% of the test drug which is admixed into the diet. After one week the animals are etherized and a blood sample is taken from the heart and mixed with 0.14% ethylenediamine tetraacetic acid (EDTA) to measure the total cholesterol.

For `Cc1cccc(C)c1NC(=O)NC1(c2ccccc2)CCCC1` [Example 1, N-(2,6-dimethylphenyl)-N'-(1-phenylcyclopentyl)urea], in assay [1], the IC50 was 80 nM.
Still for that read-out and setting: the figure for `CCc1cccc(CC)c1NC(=O)NC1(c2ccccc2)CCC1` [Example 2, N-(2,6-diethylphenyl)-N'-(1-phenylcyclobutyl)urea] is 230 nM; for `CCc1cccc(CC)c1NC(=O)NC1(c2ccccc2)CCCC1` [Example 3, N-(2,6-diethylphenyl)-N'-(1-phenylcyclopentyl)urea] it is 120 nM.
As for `CCc1cccc(CC)c1NC(=O)NCC1(c2ccccc2)CC1` [Example 4, N-(2,6-diethylphenyl)-N'-[(1-phenylcyclopropyl)methyl]urea], the IC50 in assay [1] was 88 nM.
Still for that read-out and setting: the figure for `COc1cc(OC)c(NC(=O)NC2(c3ccccc3)CCCC2)c(OC)c1` [Example 5, N-(1-phenylcyclopentyl)-N'-(2,4,6-trimethoxyphenyl)urea] is 700 nM; for `Cc1cccc(C)c1NC(=O)NC1(c2cccs2)CCCCC1` [Example 6, N-(2,6-dimethylphenyl)-N'-[1-(2-thienyl)cyclohexyl]urea] it is 130 nM.
On to `CCc1cccc(CC)c1NC(=O)NC1(c2cccs2)CCCCC1` [Example 7, N-(2,6-diethylphenyl)-N'-[1-(2-thienyl)cyclohexyl]urea], for which, in assay [1], the IC50 is 48 nM.
With `CC(C)c1cccc(C(C)C)c1NC(=O)NC1(c2cccs2)CCCCC1` [Example 8, N-[2,6-bis(1-methylethyl)]-N'-[1-(2-thienyl)cyclohexyl]urea], the IC50 in assay [1] worked out at 43 nM. In addition, in assay [2], the “% Change” value is given as -69% and the “Total Blood Cholesterol” value was 60 (Control = 181) mg/dl.
Regarding `CCc1cccc(CC)c1NC(=O)NCC1(c2ccccc2)CCCCC1` [Example 9, N-(2,6-diethylphenyl)-N'-[(1-phenylcyclohexyl)methyl]urea], in assay [1], the IC50 is 51 nM.
On the same count and under the same terms, the figure for `Cc1cccc(C)c1NC(=O)NCC1(c2ccccc2)CCCC1` [Example 10, N-(2,6-dimethylphenyl)-N'-[(1-phenylcyclopentyl)methyl]urea] is 154 nM.
On the same count and under the same terms, the figure for `Cc1cccc(C)c1NC(=O)NCC1(c2ccccc2)CCCCC1` [Example 11, N-(2,6-dimethylphenyl)-N'-[(1-phenylcyclohexyl)methyl]urea] is 81 nM.
Still for that read-out and setting: the figure for `CCc1cccc(CC)c1NC(=O)NCC1(c2ccccc2)CCCC1` [Example 12, N-(2,6-diethylphenyl)-N'-[(1-phenylcyclopentyl)methyl]urea] is 15 nM.
Regarding `CC(C)c1cccc(C(C)C)c1NC(=O)NCC1(c2ccccc2)CCCC1` [Example 13, N-[2,6-bis(1-methylethyl)phenyl]-N'-[(1-phenylcyclopentyl)methyl]urea], the IC50 in assay [1] was determined as 17 nM. Moreover, in assay [2], the “% Change” value is listed as -73% and the “Total Blood Cholesterol” value is listed as 61 (Control = 224) mg/dl.
In the case of `CC(C)c1cccc(C(C)C)c1NC(=O)NCC1(c2ccccc2)CCCCC1` [Example 14], in assay [1], the IC50 amounted to 21 nM.
Still for that read-out and setting: the figure for `Cc1cccc(C(C)C)c1NC(=O)NC1(c2cccs2)CCCCC1` [Example 15, N-[2-methyl-6-(1-methylethyl)-phenyl]-N'-[1-(2-thienyl)cyclohexyl]urea] is 230 nM; for `Cc1cccc(C(C)(C)C)c1NC(=O)NC1(c2cccs2)CCCCC1` [Example 16, N-[2-(1,1-dimethylethyl)-6-methyl-phenyl]-N'-[1-(2-thienyl)cyclohexyl]urea] it is 256 nM.
The same measure, in the same setting: the figure for `Cc1cccc(C(C)C)c1NC(=O)NCC1(c2ccccc2)CCCCC1` [Example 17, N-[2-methyl-6-(1-methylethyl)-phenyl]-N'-[(1-phenylcyclohexyl)methyl]urea] is 58 nM.
The same measure, in the same setting: then `Cc1cccc(C(C)(C)C)c1NC(=O)NCC1(c2ccccc2)CCCCC1` [Example 18, N-[2-(1,1-dimethylethyl)-6-methylphenyl]-N'-[(1-phenylcyclohexyl)methyl]-urea], with 54 nM; and `CCc1cccc(C(C)C)c1NC(=O)NCC1(c2ccccc2)CCCCC1` [Example 19, N-[2-ethyl-6-(1-methylethyl)-phenyl]-N'-[(1-phenylcyclohexyl)methyl]urea], with 20 nM.
On to `Cc1cccc(C(C)C)c1NC(=O)NCC1(c2ccccc2)CCCC1` [Example 20, N-[2-methyl-6-(1-methylethyl)-phenyl]-N'-[(1-phenylcyclopentyl)methyl]urea], for which, in assay [1], the IC50 was found to be 16 nM.
Still for that read-out and setting: then `Cc1cccc(C(C)(C)C)c1NC(=O)NCC1(c2ccccc2)CCCC1` [Example 21, N-[2-(1,1-dimethylethyl)-6-methylphenyl]-N'-[(1-phenylcyclopentyl)methyl]-urea], with 18 nM; and `CCc1cccc(C(C)C)c1NC(=O)NCC1(c2ccccc2)CCCC1` [Example 22, N-[2-ethyl-6-(1-methylethyl)-phenyl]-N'-[(1-phenylcyclopentyl)methyl]urea], with 25 nM; and `O=C(Nc1ccc(F)cc1F)NC1(c2cccs2)CCCCC1` [Example 23, N-(2,4-difluorophenyl)-N'-[1-(2-thienyl)cyclohexyl]urea], with 370 nM.
The same measure, in the same setting: the figure for `O=C(NCC1(c2ccccc2)CCCC1)Nc1ccc(F)cc1F` [Example 24, N-(2,4-difluorophenyl)-N'-[(1-phenylcyclopentyl)methyl]urea] is 1280 nM; for `O=C(NCC1(c2ccccc2)CCCCC1)Nc1ccc(F)cc1F` [Example 25, N-(2,4-difluorophenyl)-N'-[(1-phenylcyclohexyl)methyl]urea] it is 790 nM.
Same read-out and setting: then `O=C(NCC1(c2ccccc2)CCCCC1)Nc1c(Br)cc(F)cc1Br` [Example 26, N-(2,6-dibromo-4-fluorophenyl)-N'-[(1-phenyl-cyclohexyl)methyl]urea], with 39 nM.
